Reference: ChEMBL document CHEMBL1201862, “PubChem BioAssay data set” (2004)
Active and inactive are the calls of the source.

What was measured:
[1] = molecular target: Integrin alpha-4 (Homo sapiens, UniProt P13612); test: VLA-4 integrin allosteric ligands, SAR follow-up, cell-based, LIBS antibody binding, flow cytometry (AID 488791); assay type: functional
[2] = molecular target: E3 ubiquitin-protein ligase Mdm2/Protein Mdm4 (Homo sapiens, UniProt O15151+Q00987); test: Mdm2-MdmX interaction inhibitors, dose response, luminescence detection (AID 504593); assay type: functional
Sequence of E3 ubiquitin-protein ligase Mdm2/Protein Mdm4 (Q00987 whole entry): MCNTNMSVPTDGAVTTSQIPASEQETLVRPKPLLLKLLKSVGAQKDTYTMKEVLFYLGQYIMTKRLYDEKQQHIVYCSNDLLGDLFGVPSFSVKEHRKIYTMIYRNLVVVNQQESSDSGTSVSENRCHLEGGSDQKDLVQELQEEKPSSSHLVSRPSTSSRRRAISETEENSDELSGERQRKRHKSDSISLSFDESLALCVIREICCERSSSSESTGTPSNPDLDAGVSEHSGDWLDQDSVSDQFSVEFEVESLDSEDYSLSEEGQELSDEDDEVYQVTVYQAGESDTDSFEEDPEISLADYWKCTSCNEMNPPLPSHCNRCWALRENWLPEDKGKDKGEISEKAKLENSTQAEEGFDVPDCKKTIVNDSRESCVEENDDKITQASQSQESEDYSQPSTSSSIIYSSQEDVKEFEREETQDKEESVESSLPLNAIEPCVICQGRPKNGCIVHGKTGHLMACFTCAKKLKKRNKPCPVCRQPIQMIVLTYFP
Sequence of E3 ubiquitin-protein ligase Mdm2/Protein Mdm4 (O15151 whole entry): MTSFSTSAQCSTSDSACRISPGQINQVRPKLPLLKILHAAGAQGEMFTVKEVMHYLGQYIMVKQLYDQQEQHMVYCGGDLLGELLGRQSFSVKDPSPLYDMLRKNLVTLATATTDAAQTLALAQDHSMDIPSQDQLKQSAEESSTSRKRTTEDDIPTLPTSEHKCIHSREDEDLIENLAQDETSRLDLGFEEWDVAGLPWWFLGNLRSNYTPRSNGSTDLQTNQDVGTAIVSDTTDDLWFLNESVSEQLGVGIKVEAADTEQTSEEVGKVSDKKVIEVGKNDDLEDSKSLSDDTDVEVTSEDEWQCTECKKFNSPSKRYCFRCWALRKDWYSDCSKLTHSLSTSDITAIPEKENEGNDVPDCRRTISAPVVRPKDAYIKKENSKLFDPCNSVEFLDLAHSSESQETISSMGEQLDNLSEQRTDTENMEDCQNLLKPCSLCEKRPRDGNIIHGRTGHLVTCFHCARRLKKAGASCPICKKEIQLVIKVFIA

[3] = HEp-2 cell cytotoxicity, dose response, cytotoxicity control for RSV inhibitor project, HTS (AID 2410); assay type: functional; details: human respiratory syncytial virus
[4] = molecular target: Delta-type opioid receptor (Homo sapiens, UniProt P41143); test: SAR Analysis of Antagonists of the DOR Receptor using an Image-Based Assay - Set 3. [Related pubchem assays (depositor defined):AID1777, AID1785]; assay type: functional;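 also: U2OS cells expressing DOR1 and beta-arrestin GFP stimulated with 100 nM SNC80; imaging of GFP-tagged beta-arrestin moving into spots after receptor activation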
Sequence of Delta-type opioid receptor (P41143 whole entry): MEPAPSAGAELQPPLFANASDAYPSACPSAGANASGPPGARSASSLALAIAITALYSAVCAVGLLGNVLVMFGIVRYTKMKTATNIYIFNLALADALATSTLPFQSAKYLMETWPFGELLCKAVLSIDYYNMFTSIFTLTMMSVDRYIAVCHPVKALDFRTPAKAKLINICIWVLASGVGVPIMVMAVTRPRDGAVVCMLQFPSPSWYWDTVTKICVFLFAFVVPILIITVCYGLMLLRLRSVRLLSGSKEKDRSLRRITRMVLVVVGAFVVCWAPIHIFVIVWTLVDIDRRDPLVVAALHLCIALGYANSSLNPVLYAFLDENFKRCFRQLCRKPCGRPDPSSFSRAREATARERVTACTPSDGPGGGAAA

[5] = molecular target: T1, Kappa-type opioid receptor (Homo sapiens, UniProt P41145); test: SAR analysis of small molecule antagonists of the kappa opioid receptor via a luminescent beta-arrestin assay - Set 6. [Related pubchem assays (depositor defined):AID1777, AID1778, AID1785, AID1786, AID1966, AID2133, AID2136, AID2285]; assay type: functional
T1 sequence (P41145 whole entry): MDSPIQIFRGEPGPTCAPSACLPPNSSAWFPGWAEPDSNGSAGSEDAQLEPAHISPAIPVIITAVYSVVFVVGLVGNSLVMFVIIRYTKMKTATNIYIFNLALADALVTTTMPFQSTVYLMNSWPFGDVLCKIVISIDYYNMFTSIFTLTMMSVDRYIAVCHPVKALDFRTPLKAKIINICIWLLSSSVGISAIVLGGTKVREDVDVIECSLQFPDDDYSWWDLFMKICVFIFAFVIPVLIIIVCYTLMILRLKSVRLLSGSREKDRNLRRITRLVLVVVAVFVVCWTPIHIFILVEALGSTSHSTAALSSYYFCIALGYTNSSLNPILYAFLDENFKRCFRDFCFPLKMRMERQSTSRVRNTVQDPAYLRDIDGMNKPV

[6] = molecular target: T1, Kappa-type opioid receptor; test: SAR analysis of Antagonists of the Kappa Opioid Receptor (KOR) using an Image-Based Assay - Set 4. [Related pubchem assays (depositor defined):AID1777, AID1785]; assay type: functional
[7] = molecular target: T1, Kappa-type opioid receptor; test: SAR analysis of small molecule antagonists of the kappa opioid receptor via a luminescent beta-arrestin assay - Set 3. [Related pubchem assays (depositor defined):AID1777, AID1778, AID1785, AID1786, AID1966, AID2133, AID2136, AID2285, AID2495]; assay type: functional
[8] = molecular target: Mu-type opioid receptor (Homo sapiens, UniProt P35372); test: SAR Analysis of Antagonists of the MOR Receptor using an Image-Based Assay - Set 3. [Related pubchem assays (depositor defined):AID1777, AID1785, AID1786, AID1966, AID2133, AID2136, AID2284, AID2285, AID2420]; assay type: functional
Sequence of Mu-type opioid receptor (P35372 whole entry): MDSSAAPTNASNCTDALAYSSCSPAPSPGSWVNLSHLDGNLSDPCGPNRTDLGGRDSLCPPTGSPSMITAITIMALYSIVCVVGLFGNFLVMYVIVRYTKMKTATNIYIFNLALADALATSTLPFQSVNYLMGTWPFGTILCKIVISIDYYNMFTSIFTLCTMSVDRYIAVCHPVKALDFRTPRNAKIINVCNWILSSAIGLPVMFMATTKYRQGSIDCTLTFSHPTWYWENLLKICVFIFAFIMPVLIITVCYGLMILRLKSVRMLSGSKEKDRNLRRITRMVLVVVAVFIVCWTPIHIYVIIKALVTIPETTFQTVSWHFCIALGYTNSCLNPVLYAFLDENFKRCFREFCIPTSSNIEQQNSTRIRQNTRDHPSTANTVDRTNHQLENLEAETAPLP

[9] = tested on: Trypanosoma cruzi; test: growth inhibition of intracellular Trypanosoma cruzi, dose response, cell-based, plate reader, dry powder, set 3 (AID 493197); assay type: functional
[10] = cytotoxicity in NIH/3T3 mouse fibroblasts, dose response, cytotoxicity control, cell-based, mouse embryonic fibroblasts, dry powder, set 2 (AID 493247); assay type: functional; details: Fibroblast
[11] = molecular target: T2, Scavenger receptor class B member 1 (Mus musculus, UniProt Q61009); test: inhibitors of SR-BI mediated HDL lipid uptake, dose response, ldlA[mSR-BI] cells, fluorescence, cherry pick (AID 493194); assay type: functional, cell-based;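 also: cellular uptake of fluorescent DiI-labeled HDL measured as cell fluorescence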
T2 sequence (Q61009 whole entry): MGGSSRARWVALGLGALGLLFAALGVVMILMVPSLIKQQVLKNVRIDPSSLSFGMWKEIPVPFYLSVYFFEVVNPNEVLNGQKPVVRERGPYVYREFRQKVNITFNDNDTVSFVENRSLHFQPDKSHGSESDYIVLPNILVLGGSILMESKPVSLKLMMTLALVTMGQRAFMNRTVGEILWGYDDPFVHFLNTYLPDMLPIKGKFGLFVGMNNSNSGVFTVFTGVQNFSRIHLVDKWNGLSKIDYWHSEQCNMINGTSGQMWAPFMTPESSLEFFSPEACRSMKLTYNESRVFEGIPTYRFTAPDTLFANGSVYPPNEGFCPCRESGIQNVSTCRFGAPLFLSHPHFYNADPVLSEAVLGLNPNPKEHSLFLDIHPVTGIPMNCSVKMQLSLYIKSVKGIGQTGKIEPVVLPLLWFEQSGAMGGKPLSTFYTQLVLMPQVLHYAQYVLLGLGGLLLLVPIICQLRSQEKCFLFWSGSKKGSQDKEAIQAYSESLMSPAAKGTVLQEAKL

[12] = molecular target: T3, Leucine aminopeptidase (Plasmodium falciparum 3D7, UniProt Q8IL11); test: P. falciparum M17LAP inhibitors, primary screen, biochemical, fluorogenic H-Leu-NHMec substrate, 1536-well (AID 1619); assay type: functional
T3 sequence (Q8IL11 whole entry): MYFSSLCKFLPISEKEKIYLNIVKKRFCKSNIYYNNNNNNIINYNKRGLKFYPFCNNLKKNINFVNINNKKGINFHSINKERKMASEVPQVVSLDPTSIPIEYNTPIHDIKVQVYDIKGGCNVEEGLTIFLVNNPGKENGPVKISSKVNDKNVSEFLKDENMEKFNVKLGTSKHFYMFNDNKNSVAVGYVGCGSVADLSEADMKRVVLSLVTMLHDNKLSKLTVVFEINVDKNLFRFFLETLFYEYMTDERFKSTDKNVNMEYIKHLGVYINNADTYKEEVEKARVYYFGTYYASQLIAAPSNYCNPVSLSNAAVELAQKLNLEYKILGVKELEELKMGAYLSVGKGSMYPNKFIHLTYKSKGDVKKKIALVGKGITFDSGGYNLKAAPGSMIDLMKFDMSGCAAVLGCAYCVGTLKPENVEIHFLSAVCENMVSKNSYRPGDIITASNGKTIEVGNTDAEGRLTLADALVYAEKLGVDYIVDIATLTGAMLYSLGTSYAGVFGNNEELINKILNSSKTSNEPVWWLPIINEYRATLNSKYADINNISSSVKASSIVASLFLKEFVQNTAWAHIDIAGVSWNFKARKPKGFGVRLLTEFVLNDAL

[13] = molecular target: Induced myeloid leukemia cell differentiation protein Mcl-1 (Homo sapiens, UniProt Q07820); assay type: functional
Sequence of Induced myeloid leukemia cell differentiation protein Mcl-1 (Q07820 whole entry): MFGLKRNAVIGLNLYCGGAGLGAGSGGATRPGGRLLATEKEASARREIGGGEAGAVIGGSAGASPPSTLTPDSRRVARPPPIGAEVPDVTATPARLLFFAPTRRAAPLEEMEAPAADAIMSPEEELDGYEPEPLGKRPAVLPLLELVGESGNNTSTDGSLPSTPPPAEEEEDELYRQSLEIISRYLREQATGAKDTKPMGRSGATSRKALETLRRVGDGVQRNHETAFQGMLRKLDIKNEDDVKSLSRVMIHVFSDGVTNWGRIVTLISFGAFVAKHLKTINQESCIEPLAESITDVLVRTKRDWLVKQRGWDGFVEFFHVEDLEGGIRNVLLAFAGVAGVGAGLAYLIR

[14] = molecular target: T4, Eukaryotic translation initiation factor 4H (Homo sapiens, UniProt Q15056); test: human eIF4H binding inhibitors, primary screen, translation initiation inhibitor project, biochemical, uHTS, fluorescence polarization (AID 2012)
[15] = molecular target: T5, Polyadenylate-binding protein 1 (Homo sapiens, UniProt P11940); test: PABP inhibition in translation initiation, SAR follow-up (AID 435018); assay type: functional
T5 sequence (P11940 whole entry): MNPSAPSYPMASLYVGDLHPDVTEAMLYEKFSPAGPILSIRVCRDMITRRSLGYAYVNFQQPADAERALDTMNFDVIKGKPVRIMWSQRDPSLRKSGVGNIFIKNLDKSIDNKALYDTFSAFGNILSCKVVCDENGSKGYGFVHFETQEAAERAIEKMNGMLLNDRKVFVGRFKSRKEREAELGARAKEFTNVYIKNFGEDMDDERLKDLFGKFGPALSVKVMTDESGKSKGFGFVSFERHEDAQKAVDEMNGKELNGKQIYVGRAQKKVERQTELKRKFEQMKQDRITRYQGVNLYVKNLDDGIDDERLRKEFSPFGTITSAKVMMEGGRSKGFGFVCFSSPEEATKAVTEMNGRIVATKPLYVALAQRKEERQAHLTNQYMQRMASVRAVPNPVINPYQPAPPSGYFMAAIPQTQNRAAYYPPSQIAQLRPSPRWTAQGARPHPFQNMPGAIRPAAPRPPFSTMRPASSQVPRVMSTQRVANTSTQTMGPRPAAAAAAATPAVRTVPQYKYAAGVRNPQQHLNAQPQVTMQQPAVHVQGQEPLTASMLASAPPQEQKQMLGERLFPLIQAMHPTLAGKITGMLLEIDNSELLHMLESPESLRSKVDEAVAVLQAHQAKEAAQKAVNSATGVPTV

[16] = molecular target: T4, Eukaryotic translation initiation factor 4H; test: eIF4H inhibition in translation initiation, SAR follow-up (AID 435011); assay type: functional
[17] = molecular target: T5, Polyadenylate-binding protein 1; test: PABP poly(A) RNA binding inhibitors, primary screen, biochemical, fluorescence polarization, uHTS (AID 2014)
[18] = molecular target: T6, Microphthalmia-associated transcription factor (Homo sapiens, UniProt O75030); test: TRPM1 promoter luciferase signal decrease, dose response, MITF inhibitor project, cell-based, SK-MEL-5, cherry-picked, set 4 (AID 493102); assay type: functional
T6 sequence (O75030 whole entry): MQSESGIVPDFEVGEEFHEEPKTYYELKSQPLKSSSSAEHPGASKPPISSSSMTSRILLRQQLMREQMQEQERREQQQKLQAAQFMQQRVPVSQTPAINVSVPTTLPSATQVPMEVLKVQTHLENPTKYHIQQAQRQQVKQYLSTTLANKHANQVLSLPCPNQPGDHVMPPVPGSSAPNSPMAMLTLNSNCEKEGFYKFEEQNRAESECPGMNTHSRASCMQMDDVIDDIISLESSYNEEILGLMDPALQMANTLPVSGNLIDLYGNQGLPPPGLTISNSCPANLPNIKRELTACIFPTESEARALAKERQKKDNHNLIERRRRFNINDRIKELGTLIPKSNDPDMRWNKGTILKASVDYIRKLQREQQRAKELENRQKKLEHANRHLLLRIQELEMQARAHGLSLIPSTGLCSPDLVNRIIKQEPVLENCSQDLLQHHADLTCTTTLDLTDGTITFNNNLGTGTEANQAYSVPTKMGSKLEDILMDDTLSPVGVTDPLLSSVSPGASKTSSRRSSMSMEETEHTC

[19] = molecular target: T6, Microphthalmia-associated transcription factor; test: TRPM1 promoter luciferase signal decrease, dose response, MITF inhibitor project, cell-based, SK-MEL-5, cherry-picked, set 3 (AID 493073); assay type: functional
[20] = molecular target: T6, Microphthalmia-associated transcription factor; test: MITF Measured in Cell-Based System Using Plate Reader - 2084-01_Inhibitor_DoseNoFile_CherryPick_Activity_Set2. [Related pubchem assays (depositor defined):AID488944]; assay type: functional

Sequence of Integrin alpha-4 (P13612 whole entry): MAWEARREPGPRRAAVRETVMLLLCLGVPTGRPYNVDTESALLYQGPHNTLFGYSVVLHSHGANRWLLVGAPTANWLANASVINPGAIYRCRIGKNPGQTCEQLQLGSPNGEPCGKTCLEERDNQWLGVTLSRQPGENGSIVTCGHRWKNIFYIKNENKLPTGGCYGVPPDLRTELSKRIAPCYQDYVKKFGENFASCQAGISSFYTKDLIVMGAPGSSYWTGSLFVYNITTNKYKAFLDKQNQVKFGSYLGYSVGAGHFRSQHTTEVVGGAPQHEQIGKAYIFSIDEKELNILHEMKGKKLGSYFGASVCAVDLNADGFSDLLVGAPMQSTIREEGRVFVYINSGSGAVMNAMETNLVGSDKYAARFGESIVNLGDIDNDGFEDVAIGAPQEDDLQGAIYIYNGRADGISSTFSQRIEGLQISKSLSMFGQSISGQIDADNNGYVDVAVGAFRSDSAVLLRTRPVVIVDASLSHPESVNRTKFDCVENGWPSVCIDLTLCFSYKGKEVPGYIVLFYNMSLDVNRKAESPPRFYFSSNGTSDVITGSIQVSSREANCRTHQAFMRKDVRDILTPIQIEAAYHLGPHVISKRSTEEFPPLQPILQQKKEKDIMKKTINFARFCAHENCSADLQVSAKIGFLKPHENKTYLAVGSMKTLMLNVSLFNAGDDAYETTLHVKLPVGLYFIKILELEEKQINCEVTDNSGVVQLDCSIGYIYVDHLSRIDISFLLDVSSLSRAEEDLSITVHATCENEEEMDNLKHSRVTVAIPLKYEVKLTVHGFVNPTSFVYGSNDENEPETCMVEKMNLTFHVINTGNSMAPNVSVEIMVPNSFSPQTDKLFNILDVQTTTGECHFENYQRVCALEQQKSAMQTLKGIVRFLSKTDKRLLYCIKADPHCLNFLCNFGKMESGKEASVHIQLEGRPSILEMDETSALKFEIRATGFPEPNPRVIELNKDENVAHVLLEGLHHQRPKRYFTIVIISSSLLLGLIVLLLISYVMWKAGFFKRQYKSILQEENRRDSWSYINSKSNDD

## FC(F)Oc1ccc(C2=Nn3c(nnc3-c3ccccc3Cl)SC2)cc1OCC1CC1
[1]
  EC50: 3.89 µM (active)

## Cc1cccn2c(=O)c3cc(C(=O)NCCc4ccccc4)c(=N)n(Cc4ccco4)c3nc12
[2]
  IC50: 3.68 µM (active)
[3]
  CC50: 15.5 µM (active)

## COc1ccc(N2CCN(CCCNC(=O)Cn3c(=O)c4cccn4c4c(C)ccnc43)CC2)c(OC)c1
[4]
  IC50: > 32 µM (inactive)
[5]
  IC50: 0.225 µM (active)
[6]
  IC50: 0.00406 µM (active)
[7]
  IC50: 0.154 µM (active)
[8]
  IC50: 30.9 µM (inactive)

## COc1ccc(CCN(C)C(=O)C2CCCN(Cc3ccccc3)C2)cc1OC (stereo not given)
[9]
  AC50: 1.4 µM (active)
[10]
  AC50: 47.4 µM (active)

## CC1CCc2c(sc(Nc3nc4c(F)cccc4s3)c2C(N)=O)C1 (stereo not given)
[11]
  AC50: 10.9 µM (active)
[12]
  IC50: 18 µM (active)
[13]
  IC50: 3.83 µM (active)

## COc1cccc(CNC(=O)CSc2ccc(-c3ccco3)nn2)c1
[14]
  IC50: 34.9 µM (active)
[15]
  IC50: > 100 µM (inactive)
[16]
  IC50: > 100 µM (inactive)
[17]
  IC50: > 100 µM (inactive)

## O=C(COC(=O)C1=COCCO1)Nc1c(F)cccc1F
[18]
  AC50: > 350 µM (inactive)
[19]
  AC50: > 350 µM (inactive)
[20]
  AC50: > 350 µM (inactive)
